Like-named read-outs stand apart in the source and are kept apart here.
Experiments:
[1] = Oral toxicity (mortality) in the mouse, Table 1; type: in vivo; settings: mouse, in vivo, po, Swiss mice, 14 days
Description: (§1) The mortality percentages caused by the products of the present invention administered orally to Swiss mice are shown in Table 1. The animals, free of specific pathological organism were housed in an air conditioned room from 24 to 48 hours before the start of the experiments. They were divided up into lots of 5 males and 5 females. With the animals unfed for 24 hours, the substances were administered intragastrically in a base of 6% gum arabic in a volume equal to 0.1 ml for 10 g of animal weight. The mortality was recorded at 14 days.
(§2) % of mortality as a function of the dose

[2] = system: number of displacements of the animal; test: Four plates test (anxiolytic activity), Table 5; type: in vivo; settings: oral, mouse
Excerpt: (§3) The psychotropic profile of the present invention products has been characterized with the animals in numerous tests some of whose results are shown hereinafter. The products of the invention were always administered orally in 6% gum base.
A certain number of products manifest an anxiolytic activity evidenced in the test with the four plates with the mouse (Table 5).
% of increase in the number of displacements of the
animal as a function of the dose expressed in mg/kg

[3] = system: ptosis induced by reserpine; test: Antagonism of ptosis induced by reserpine, Table 6; type: in vivo; settings: read-out: % of inhibition of ptosis induced by reserpine
Excerpt: as §3
(§4) Certain tests made it possible to show antidepressive activities. These are tests of antagonism to the effects of reserpine, oxotremorine (according to Everett G. M. et al, Science, 1956, 124, 79 and Levy J. et al, Therapie 1965, 20, 265) and to despair (according to Porsolt P. D. et al, Eur. J. Pharmacol., 1978, 47, 379-91).
% of inhibition of ptosis induced by reserpine
as a function of the dose administered orally

[4] = system: phenylbenzoquinone (PBQ); test: Analgesic activity using phenylbenzoquinone (PBQ) as noxious agent, Table 2; type: in vivo, male Swiss mouse; settings: for inhibition in vivo at 50 mg/kg / inhibition in vivo at 100 mg/kg / inhibition in vivo at 200 mg/kg: Mus musculus
Description: The analgesic activity was determined with the male Swiss mouse using phenylbenzoquinone (PBQ) (a variation of the method of Siegmund et al, Proc. Soc. Exp. Med., […], 95, 729-31) as the noxious agent. Twenty-eightminutes after having administered the test products in a suspension in a 6% gum base, the PBQ solution was injected. The mice were then observed ca. 5 mn. for the next five minutes.
% of analgesic activity as a function of
the dose expressed in mg/kg

[5] = system: number of escapes the animal made in 5 minutes; test: Escape test, Table 3; type: in vivo, mouse; settings: 5 min, read-out: % of activity (variation of the number of escapes)
Excerpt: The products of the invention were always administered orally in 6% gum base.
The notation NS signifies that the difference between the results noted for the product and the results noted for the excipient alone is not significant at the threshold 0.05 according to the Student t Test.

[6] = system: trembling induced by oxotremorine; test: Antagonism of trembling induced by oxotremorine, Table 7; type: in vivo; settings: oral, read-out: % of inhibition of trembling induced by oxotremorine
Excerpt: as §3, §4
% of inhibition of trembling induced by
oxotremorine as a function of the dose
administered expressed in mg/kg

[7] = system: Swiss mice; test: Oral toxicity (mortality) in the mouse, Table 1; type: in vivo; settings: 14 days, 20160 min
Description: as §1, §2

[8] = 50 mg/kg, male Swiss mouse, PBQ, read-out: % of analgesic activity
[9] = 100 mg/kg, male Swiss mouse, PBQ, read-out: % of analgesic activity
[10] = 200 mg/kg, male Swiss mouse, PBQ, read-out: % of analgesic activity
[11] = 50 mg/kg, oral, mouse, 5 minutes
[12] = 100 mg/kg, oral, mouse, 5 minutes
[13] = read-out: % of analgesic activity, 100 mg/kg, male Swiss mouse, PBQ
[14] = read-out: % of analgesic activity, 200 mg/kg, male Swiss mouse, PBQ

C(=Nc1cc2c(cc1CCN1CCOCC1)OCO2)c1cccs1 [COR 01 180]
mortality at 336 h ([1]; 500 mg/kg): 0%
mortality at 336 h ([1]; 1000 mg/kg): 70%
% of increase in the number of displacements of the animal ([2]; 25 mg/kg): +69%
% of increase in the number of displacements of the animal ([2]; 50 mg/kg): +88%
% of increase in the number of displacements of the animal ([2]; 75 mg/kg): +35%
change in vivo at 2.5 mg/kg ([3]; 2.5 mg/kg, oral): -18%
change in vivo at 5 mg/kg ([3]; 5 mg/kg, oral): -34%
change in vivo at 10 mg/kg ([3]; 10 mg/kg, oral): -26%
change in vivo at 25 mg/kg ([3]; 25 mg/kg, oral): -20%
inhibition in vivo at 50 mg/kg [4, 8]: 18%
inhibition in vivo at 100 mg/kg [4, 9]: 26%
inhibition in vivo at 200 mg/kg [4, 10]: 34%
change in vivo at 50 mg/kg [5, 11]: -21%
change in vivo at 100 mg/kg [5, 12]: -37%
change in vivo at 200 mg/kg ([5]; oral, mouse, 5 minutes): -75%
change in vivo at 50 mg/kg [6]: -22%
change in vivo at 100 mg/kg [6]: -44%
change in vivo at 200 mg/kg [6]: -44%

C(=Nc1cc2c(cc1CCN1CCCCC1)OCO2)c1cccs1 [COR 01 175, 6-(2-N-piperidinoethyl) N-(thienylidene-2)-1,3-benzodioxole-5-ylamine]
mortality at 336 h ([1]; 250 mg/kg): 0%
mortality at 336 h ([1]; 500 mg/kg): 10%
mortality at 336 h ([1]; 750 mg/kg): 10%
inhibition in vivo at 100 mg/kg [4, 9]: 13%
inhibition in vivo at 200 mg/kg [4, 10]: 71%

CN(C)CCc1cc2c(cc1N=Cc1ccc(Cl)c(Cl)c1)OCO2 [COR 01 207]
mortality at 336 h ([1]; 750 mg/kg): 0%
mortality at 336 h ([1]; 1000 mg/kg): 20%
mortality at 336 h ([1]; 1500 mg/kg): 20%
mortality at 336 h ([1]; 2000 mg/kg): 40%

CN(C)CCc1cc2c(cc1N=Cc1ccc(Cl)cc1)OCO2 [COR 01 208]
mortality at 336 h ([1]; 500 mg/kg): 0%
mortality at 336 h ([1]; 750 mg/kg): 30%
mortality at 336 h ([1]; 1000 mg/kg): 20%
mortality at 336 h ([1]; 1500 mg/kg): 20%
mortality at 336 h ([1]; 2000 mg/kg): 80%

CN(C)CCc1cc2c(cc1N=Cc1ccc(Br)s1)OCO2 [COR 01 181]
mortality at 336 h ([1]; 250 mg/kg): 0%
mortality at 336 h ([1]; 500 mg/kg): 30%
inhibition in vivo at 50 mg/kg ([4]; read-out: % of analgesic activity, 50 mg/kg, male Swiss mouse, PBQ): 25%
inhibition in vivo at 100 mg/kg [4, 13]: 42%

C(=Nc1cc2c(cc1CCN1CCOCC1)OCO2)c1cccnc1 [COR 01 204]
mortality at 336 h ([1]; 1500 mg/kg): 0%
mortality at 336 h ([1]; 2000 mg/kg): 10%
inhibition in vivo at 50 mg/kg [4, 8]: 0%
inhibition in vivo at 100 mg/kg [4, 9]: 45%
inhibition in vivo at 200 mg/kg [4, 10]: 42%
change in vivo at 5 mg/kg ([5]; 5 mg/kg, oral, mouse, 5 minutes): -28%
change in vivo at 25 mg/kg ([5]; 25 mg/kg, oral, mouse, 5 minutes): -31%
change in vivo at 50 mg/kg [5, 11]: -24%
change in vivo at 75 mg/kg ([5]; 75 mg/kg, oral, mouse, 5 minutes): -20%
change in vivo at 100 mg/kg [5, 12]: -15%
change in vivo at 200 mg/kg ([5]; oral, mouse, 5 minutes): -24%
change in vivo at 50 mg/kg [6]: -30%
change in vivo at 100 mg/kg [6]: -20%
change in vivo at 200 mg/kg [6]: -30%

CN(C)CCc1cc2c(cc1N=Cc1cccs1)OCO2 [COR 01 171]
% of mortality ([7]; 150 mg/kg): 20%
% of mortality ([7]; 250 mg/kg): 80%
% of mortality ([7]; 500 mg/kg): 90%
% of analgesic activity ([4]; 50 mg/kg, male Swiss mouse, PBQ): 51%

CC(Cc1ccccc1N=Cc1cccnc1)N(C)C (stereo not drawn) [COR 01 214, 2-(2-N,N-dimethylamino-2-methylethyl)-N-pyridylidene-3 aniline]
mortality at 336 h ([1]; 1000 mg/kg): 0%
mortality at 336 h ([1]; 1500 mg/kg): 30%
mortality at 336 h ([1]; 2000 mg/kg): 70%
inhibition in vivo at 100 mg/kg [4, 13]: 21%
inhibition in vivo at 200 mg/kg [4, 14]: 30%

CN(C)CCc1ccccc1N=CC=Cc1ccccc1 [COR 01 185, N-cinnamylidene 2-(2-N,N,-dimethylaminoethyl)aniline]
mortality at 336 h ([1]; 1500 mg/kg): 0%
mortality at 336 h ([1]; 2000 mg/kg): 100%

CC(C)(C)NCCc1cc2c(cc1N=Cc1cccnc1)OCO2 [COR 01 195]
mortality at 336 h ([1]; 1000 mg/kg): 0%
mortality at 336 h ([1]; 1500 mg/kg): 20%
mortality at 336 h ([1]; 2000 mg/kg): 30%
change in vivo at 50 mg/kg ([3]; po): -22%
change in vivo at 100 mg/kg ([3]; po): -22%
inhibition in vivo at 100 mg/kg [4, 13]: 24%
inhibition in vivo at 200 mg/kg [4, 14]: 31%
change in vivo at 3 mg/kg ([5]; Mus musculus, po): 54%
change in vivo at 5 mg/kg ([5]; Mus musculus, po): 53%
change in vivo at 50 mg/kg ([5]; Mus musculus, po): 19%
change in vivo at 100 mg/kg ([5]; Mus musculus, po): 28%

— patent publication US4333930A, “Orthoarylideneaminophenethylamines and pharmaceutical compositions” (priority 1980, dated 1982)
